US20090304746A1 (priority 1993, published 2009)
No end group written: not given here.

Assays:
[1] = target: HLA-B*3501 (Homo sapiens, UniProt P01889, A329T/A93T/A95T/C349S/D201E/D98Y/E176V/E187L/E204Q/E69T/I218V/K202T/L119I/Q94N/R155S/R180L/S121R/S35A/S48A/T118I/V127L/V306I/V36M/Y140S/Y91F); assay: HLA class I binding assay, B*3501
[2] = target: HLA-B*5301 (Homo sapiens, UniProt P01889, A329T/A93T/A95T/C349S/D201E/D98Y/E176V/E187L/E204Q/E69T/G107R/I218V/K202T/L105A/L119I/N104I/Q94N/R106L/R155S/R180L/S101N/S121R/S35A/S48A/T118I/V127L/V306I/V36M/Y140S/Y91F); assay: HLA class I binding assay, B*5301
[3] = target: T1, DRB1*0301 (DR3) (Homo sapiens, UniProt P01903+P01911, A100K/A102G/A103R/A169T/F55Y/I96L/K41T/L162R/M171V/P40S/Q125H/Q178H/Q39Y/R42S/S66N/T106N/T262R/W38E/Y61H); assay: HLA class II binding assay, DRB1*0301 (DR3); conditions: DR3 binding affinity, DR3 motif peptides
T1 construct: endogenous in cells; host or cells: MAT

[4] = system: PBMC from HCV-infected patients; assay: CTL recall: recognition in vitro by PBMC from HCV-infected patients, 51Cr release; type: cell-based, human
[5] = A3-supertype binders, positive responses over total number examined
[6] = A3-supertype binders, positive responses over total number of contacts examined
[7] = A3-supertype binders, positive responses over total number of patients examined
[8] = A3-supertype binders, sum over all groups, positive over total examined
[9] = sum over the four human data sets

CC[C@H](C)[C@H](N)C(=O)N1CCC[C@H]1C(=O)N[C@@H](Cc1ccccc1)C(=O)N[C@@H](Cc1ccc(O)cc1)C(=O)NCC(=O)N[C@@H](CCCCN)C(=O)N[C@@H](C)C(=O)N[C@H](C(=O)O)[C@@H](C)CC [29.0035/1260.04]
IC50 [1]: > 30 µM | IC50 [2]: > 30 µM

CSCC[C@H](NC(=O)[C@H](CC(C)C)NC(=O)[C@H](C)NC(=O)[C@H](CC(=O)O)NC(=O)[C@@H](NC(=O)[C@H](C)NC(=O)[C@@H](NC(=O)[C@@H](NC(=O)[C@@H](NC(=O)[C@@H](N)C(C)C)C(C)C)C(C)C)C(C)C)[C@@H](C)O)C(=O)N[C@H](C(=O)NCC(=O)N[C@@H](Cc1ccc(O)cc1)C(=O)N[C@H](C(=O)NCC(=O)O)[C@@H](C)O)[C@@H](C)O [CH35.0106]
IC50 [3]: ≤ 1 µM

CC[C@H](C)[C@H](NC(=O)[C@@H](N)CC(C)C)C(=O)N[C@@H](Cc1ccccc1)C(=O)N[C@@H](CS)C(=O)N[C@@H](Cc1c[nH]cn1)C(=O)N[C@@H](CO)C(=O)N[C@@H](CCCCN)C(=O)N[C@@H](CCCCN)C(=O)N[C@@H](CCCCN)C(=O)O [Peptide 1.0123]
Immunogenicity Human, Chisari [4, 5]: 4/12 | Immunogenicity Human, Pape [4, 5]: 2/6 | Immunogenicity Human, Barnaba; contacts [4, 6]: 1/4 | Immunogenicity Human, Barnaba; patients [4, 7]: 6/16 | Immunogenicity Human, overall [4, 8]: 13/38 | Immunogenicity Human, Barnaba; patients ([4]; responders/tested): 6/16 | Immunogenicity Human, Chisari ([4]; responders/tested): 4/12 | Immunogenicity Human, Pape ([4]; responders/tested): 2/6 | Immunogenicity Human, Barnaba; contacts ([4]; responders/tested, contacts): 1/4 | Immunogenicity Human, overall [4, 9]: 13/38

C[C@@H](O)[C@H](NC(=O)[C@@H](N)CCCCN)C(=O)N[C@@H](CO)C(=O)N[C@@H](CCC(=O)O)C(=O)N[C@@H](CCCNC(=N)N)C(=O)N[C@@H](CO)C(=O)N[C@@H](CCC(N)=O)C(=O)N1CCC[C@H]1C(=O)N[C@@H](CCCNC(=N)N)C(=O)O [Peptide 1.0952]
Immunogenicity Human, Chisari [4, 5]: 3/12 | Immunogenicity Human, Pape [4, 5]: 0/6 | Immunogenicity Human, Barnaba; contacts [4, 6]: 1/4 | Immunogenicity Human, Barnaba; patients [4, 7]: 2/16 | Immunogenicity Human, overall [4, 8]: 6/38 | Immunogenicity Human, Barnaba; patients ([4]; responders/tested): 2/16 | Immunogenicity Human, Chisari ([4]; responders/tested): 3/12 | Immunogenicity Human, Pape ([4]; responders/tested): 0/6 | Immunogenicity Human, Barnaba; contacts ([4]; responders/tested, contacts): 1/4 | Immunogenicity Human, overall [4, 9]: 6/38

CC(C)C[C@H](NC(=O)[C@@H](N)CCC(N)=O)C(=O)N[C@@H](Cc1ccccc1)C(=O)N[C@H](C(=O)N[C@@H](Cc1ccccc1)C(=O)N[C@@H](CO)C(=O)N1CCC[C@H]1C(=O)N[C@@H](CCCNC(=N)N)C(=O)N[C@@H](CCCNC(=N)N)C(=O)O)[C@@H](C)O [Peptide 1.0955]
Immunogenicity Human, Chisari [4, 5]: 6/12 | Immunogenicity Human, Pape [4, 5]: 1/6 | Immunogenicity Human, Barnaba; contacts [4, 6]: 0/4 | Immunogenicity Human, Barnaba; patients [4, 7]: 1/16 | Immunogenicity Human, overall [4, 8]: 8/38 | Immunogenicity Human, Barnaba; patients ([4]; responders/tested): 1/16 | Immunogenicity Human, Chisari ([4]; responders/tested): 6/12 | Immunogenicity Human, Pape ([4]; responders/tested): 1/6 | Immunogenicity Human, Barnaba; contacts ([4]; responders/tested, contacts): 0/4 | Immunogenicity Human, overall [4, 9]: 8/38

CC(C)C[C@H](NC(=O)[C@H](C)NC(=O)CNC(=O)[C@H](C)NC(=O)[C@@H](N)C(C)C)C(=O)N[C@H](C(=O)N[C@@H](C)C(=O)N[C@@H](Cc1ccccc1)C(=O)N[C@@H](CCCCN)C(=O)O)C(C)C [Peptide 24.0090]
Immunogenicity Human, Chisari [4, 5]: 6/12 | Immunogenicity Human, Pape [4, 5]: 0/4 | Immunogenicity Human, Barnaba; contacts [4, 6]: 1/4 | Immunogenicity Human, Barnaba; patients [4, 7]: 4/16 | Immunogenicity Human, overall [4, 8]: 11/38 | Immunogenicity Human, Barnaba; patients ([4]; responders/tested): 4/16 | Immunogenicity Human, Chisari ([4]; responders/tested): 6/12 | Immunogenicity Human, Pape ([4]; responders/tested): 0/4 | Immunogenicity Human, Barnaba; contacts ([4]; responders/tested, contacts): 1/4 | Immunogenicity Human, overall [4, 9]: 11/38

CSCC[C@H](NC(=O)[C@H](CCCNC(=N)N)NC(=O)[C@H](C)NC(=O)[C@H](Cc1c[nH]c2ccccc12)NC(=O)[C@H](CC(C)C)NC(=O)[C@@H](NC(=O)[C@@H]1CCCN1C(=O)[C@H](C)N)[C@@H](C)O)C(=O)O [Peptide 29.0031]
IC50 [1]: > 30 µM | IC50 [2]: > 30 µM

CC[C@H](C)[C@H](NC(=O)[C@H](CC(C)C)NC(=O)[C@H](CCCNC(=N)N)NC(=O)[C@H](C)NC(=O)[C@@H]1CCCN1C(=O)[C@@H](N)CCCCN)C(=O)N[C@H](C(=O)N[C@@H](Cc1ccccc1)C(=O)O)C(C)C [Peptide 29.0037]
IC50 [1]: > 30 µM | IC50 [2]: > 30 µM

CC(C)C[C@H](NC(=O)[C@H](CCCNC(=N)N)NC(=O)[C@@H]1CCCN1C(=O)CNC(=O)[C@H](CCCNC(=N)N)NC(=O)[C@H](CCCNC(=N)N)NC(=O)[C@@H]1CCCN1C(=O)[C@@H](N)CC(C)C)C(=O)O [Peptide 29.0040]
IC50 [1]: > 30 µM | IC50 [2]: > 30 µM

CC[C@H](C)[C@H](NC(=O)[C@H](Cc1ccc(O)cc1)NC(=O)[C@@H]1CCCN1C(=O)[C@@H](N)CC(C)C)C(=O)N[C@@H](CCC(=O)O)C(=O)N[C@@H](CCC(N)=O)C(=O)NCC(=O)N[C@@H](CCSC)C(=O)O [Peptide 29.0042]
IC50 [1]: > 30 µM | IC50 [2]: > 30 µM

CC[C@H](C)[C@H](NC(=O)[C@H](CCSC)NC(=O)[C@H](CCCNC(=N)N)NC(=O)[C@H](C)NC(=O)[C@H](Cc1c[nH]c2ccccc12)NC(=O)[C@H](CC(C)C)NC(=O)[C@@H](NC(=O)[C@@H]1CCCN1C(=O)[C@H](C)N)[C@@H](C)O)C(=O)N[C@@H](CC(C)C)C(=O)N[C@@H](CCSC)C(=O)O [Peptide 29.0118]
IC50 [1]: > 30 µM | IC50 [2]: > 30 µM

CC(C)C[C@H](NC(=O)[C@H](C)NC(=O)CNC(=O)[C@H](C)NC(=O)[C@@H](NC(=O)CN)C(C)C)C(=O)N[C@H](C(=O)N[C@@H](C)C(=O)N[C@@H](Cc1ccccc1)C(=O)N[C@@H](CCCCN)C(=O)O)C(C)C [Peptide 1073.10]
Immunogenicity Human, Chisari [4, 5]: 6/12 | Immunogenicity Human, Pape [4, 5]: 2/6 | Immunogenicity Human, Barnaba; contacts [4, 6]: 0/4 | Immunogenicity Human, Barnaba; patients [4, 7]: 3/16 | Immunogenicity Human, overall [4, 8]: 11/38 | Immunogenicity Human, Barnaba; patients ([4]; responders/tested): 3/16 | Immunogenicity Human, Chisari ([4]; responders/tested): 6/12 | Immunogenicity Human, Pape ([4]; responders/tested): 2/6 | Immunogenicity Human, Barnaba; contacts ([4]; responders/tested, contacts): 0/4 | Immunogenicity Human, overall [4, 9]: 11/38

CC(C)C[C@H](NC(=O)[C@@H](N)CCCNC(=N)N)C(=O)NCC(=O)N[C@H](C(=O)N[C@@H](CCCNC(=N)N)C(=O)N[C@@H](C)C(=O)N[C@H](C(=O)N[C@@H](CCCNC(=N)N)C(=O)N[C@@H](CCCCN)C(=O)O)[C@@H](C)O)C(C)C [Peptide 1073.11]
Immunogenicity Human, Chisari [4, 5]: 7/12 | Immunogenicity Human, Pape [4, 5]: 1/6 | Immunogenicity Human, Barnaba; contacts [4, 6]: 1/4 | Immunogenicity Human, Barnaba; patients [4, 7]: 4/16 | Immunogenicity Human, overall [4, 8]: 13/38 | Immunogenicity Human, Barnaba; patients ([4]; responders/tested): 4/16 | Immunogenicity Human, Chisari ([4]; responders/tested): 7/12 | Immunogenicity Human, Pape ([4]; responders/tested): 1/6 | Immunogenicity Human, Barnaba; contacts ([4]; responders/tested, contacts): 1/4 | Immunogenicity Human, overall [4, 9]: 13/38

CSCC[C@H](NC(=O)[C@@H](N)CCCNC(=N)N)C(=O)N[C@@H](Cc1ccc(O)cc1)C(=O)N[C@H](C(=O)NCC(=O)NCC(=O)N[C@H](C(=O)N[C@@H](CCC(=O)O)C(=O)N[C@@H](Cc1c[nH]cn1)C(=O)N[C@@H](CCCNC(=N)N)C(=O)O)C(C)C)C(C)C [Peptide 1073.13]
Immunogenicity Human, Chisari [4, 5]: 4/12 | Immunogenicity Human, Pape [4, 5]: 1/6 | Immunogenicity Human, Barnaba; contacts [4, 6]: 1/4 | Immunogenicity Human, Barnaba; patients [4, 7]: 5/16 | Immunogenicity Human, overall [4, 8]: 11/38 | Immunogenicity Human, Barnaba; patients ([4]; responders/tested): 5/16 | Immunogenicity Human, Chisari ([4]; responders/tested): 4/12 | Immunogenicity Human, Pape ([4]; responders/tested): 1/6 | Immunogenicity Human, Barnaba; contacts ([4]; responders/tested, contacts): 1/4 | Immunogenicity Human, overall [4, 9]: 11/38

FPGCSFSIF [Peptide 1145.13]
IC50 [2]: 0.0032 µM
